# Earlier results as cited in patent US20130028868A1 (priority 2011, published 2013).
# Where two headings read alike, the source gives them in different places.
# Experiments:
# [1] = BDIX rats (50 rats); 3 weeks, 1 mg/kg/week
# [2] = not given; remark: listed apart in the source
# cells = settings: in vitro experiments
# [3] = by Cisplatin
# [4] = in vivo
# [5] = not given; remark: listed apart in the source
SMILES,marrow inhibition incidence (dosage amount≦100 mg/m2),marrow inhibition incidence (dosage≧120 mg/m2),deaths within 455 days after first time administration [1],died from leukemia [1],died from malignant tumor [1],died from renal fibrosarcoma [1],excreted along with urine ([2]; 96 hours after treatment) [%˜45],drug in human milk ([2]; reports),chromosome aberration (animal tissue culture),radiosensitization (cells),reduction of clearance of the drug [3],incidence rate of serious neurotoxicity [4] [%],renal clearance of the drug (share) ([5]; in vivo),protein binding ([5]; intravenous paclitaxel)
N.N.[Cl][Pt][Cl] [Cisplatin],10˜20%,about 40%,33,12,13,1,25,drug detected in human milk,causing chromosome aberration,,,,,
CC(=O)O[C@H]1C(=O)[C@@]2(C)[C@H]([C@H](OC(=O)c3ccccc3)[C@]3(O)C[C@H](OC(=O)[C@H](O)[C@@H](NC(=O)c4ccccc4)c4ccccc4)C(C)=C1C3(C)C)[C@]1(OC(C)=O)CO[C@@H]1C[C@@H]2O [Paclitaxel],,,,,,,,,,significant radiosensitization,about ⅓,6,1-8%,89%-98
